# Experimental data from paper PMC6079014, “Calcium is an essential cofactor for metal efflux by the ferroportin transporter family” (Nature Communications, 2018).
# Where two headings read alike, the source gives them in different places.
# Tests used:
# human Fpn = target: T1, human Fpn (Homo sapiens, UniProt Q9NP59); assay: 45Ca radiotracer uptake assay in Xenopus oocytes expressing Fpn; format: cell-based; details: 100 μM 45Ca2+, 30 min; vehicle or 50 nl of 50 µM Fe injected
# T1 construct: expressed in transfected cells; host or cells: Xenopus laevis oocytes injected with Fpn RNA
# T1 sequence (Q9NP59 1-571): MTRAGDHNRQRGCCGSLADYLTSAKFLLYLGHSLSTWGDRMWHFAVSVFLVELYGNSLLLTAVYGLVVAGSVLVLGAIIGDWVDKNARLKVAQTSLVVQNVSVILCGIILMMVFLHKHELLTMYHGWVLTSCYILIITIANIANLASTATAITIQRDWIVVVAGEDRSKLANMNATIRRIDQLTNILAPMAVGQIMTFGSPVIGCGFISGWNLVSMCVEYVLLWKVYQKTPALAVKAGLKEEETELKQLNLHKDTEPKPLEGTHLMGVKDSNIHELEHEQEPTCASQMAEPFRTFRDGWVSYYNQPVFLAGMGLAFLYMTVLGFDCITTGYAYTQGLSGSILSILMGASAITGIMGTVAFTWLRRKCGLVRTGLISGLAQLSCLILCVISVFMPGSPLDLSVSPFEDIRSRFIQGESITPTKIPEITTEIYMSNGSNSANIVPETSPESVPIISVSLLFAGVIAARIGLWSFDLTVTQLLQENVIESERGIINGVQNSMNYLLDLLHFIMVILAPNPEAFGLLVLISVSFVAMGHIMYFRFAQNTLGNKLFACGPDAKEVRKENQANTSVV
# Procedure: We performed laparotomy and ovariectomy on adult female Xenopus laevis frogs (Nasco, Fort Atkinson, WI) under 2-aminoethylbenzoate methanesulfonate anesthesia (0.2%, by immersion, to effect) following a protocol approved by the University of Cincinnati Institutional Animal Care and Use Committee. Ovarian tissue was isolated and treated for 3 h with […] collagenase A (Roche Diagnostics Corp., Indianapolis, IN) in calcium-free-modified Barths’ medium (MBM) of composition 88 mM NaCl, 1 mM KCl, 2.4 mM NaHCO3, 1.57 mM MgSO4, 0.66 mM NaNO3, 10 mM 4-(2-hydroxyethyl)-1-piperazineethanesulfonic acid (HEPES), buffered to pH 7.5 by using 2-amino-2-hydroxymethyl-propane-1,3-diol (Tris base). We isolated defolliculate stage V–VI oocytes stored at 17 °C in MBM of composition 88 mM NaCl, 1 mM KCl, 2.4 mM NaHCO3, 0.82 MgSO4, 0.75 mM CaCl2, 0.66 mM NaNO3, 10 mM HEPES, buffered to pH 7.5 by using Tris base, with 50 mg l^−1 ciprofloxacin. We expressed in Xenopus oocytes the 1A transcript form of human Fpn fused at its C-terminus with the enhanced green fluorescent protein (GFP) as described. Oocytes were injected with ∼50 ng of Fpn RNA and incubated for 4–6 days before being used in functional assays. Control oocytes were noninjected.
# We measured calcium uptake by using a radiotracer assay. […]
# wild type BbFpn = wild type BbFpn (Bdellovibrio bacteriovorus, UniProt Q6MLJ0); assay: biochemical; format: binding, Bdellovibrio bacteriovorous
# wild type BbFpn, sequence (Q6MLJ0 whole entry): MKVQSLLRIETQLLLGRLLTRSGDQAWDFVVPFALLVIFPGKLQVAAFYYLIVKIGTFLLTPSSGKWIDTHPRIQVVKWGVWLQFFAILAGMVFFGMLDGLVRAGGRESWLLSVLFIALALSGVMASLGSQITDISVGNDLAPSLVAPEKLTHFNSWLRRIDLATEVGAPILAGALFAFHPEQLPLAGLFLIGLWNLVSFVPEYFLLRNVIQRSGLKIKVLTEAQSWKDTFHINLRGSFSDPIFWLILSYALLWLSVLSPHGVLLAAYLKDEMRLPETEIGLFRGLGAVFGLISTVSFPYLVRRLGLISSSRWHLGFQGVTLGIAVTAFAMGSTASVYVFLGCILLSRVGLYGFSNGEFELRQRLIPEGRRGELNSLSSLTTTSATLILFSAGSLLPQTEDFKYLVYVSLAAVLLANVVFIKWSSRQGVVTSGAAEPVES
# BbFpn E203A = BbFpn E203A (Bdellovibrio bacteriovorus, UniProt Q6MLJ0, E203A); assay: Isothermal titration calorimetry, E203A BbFpn; format: binding, Bdellovibrio bacteriovorous
# BbFpn E203A, sequence (Q6MLJ0 whole entry E203A): as the sequence (Q6MLJ0 whole entry) above, with E203A counted along it
# BbFpn Q84E = BbFpn Q84E (Bdellovibrio bacteriovorus, UniProt Q6MLJ0, Q84E); assay: Isothermal titration calorimetry, Q84E BbFpn; format: binding, Bdellovibrio bacteriovorous
# BbFpn Q84E, sequence (Q6MLJ0 whole entry Q84E): as the sequence (Q6MLJ0 whole entry) above, with Q84E counted along it
# [1] = Supplementary Figs. 5 and 9, one experiment
smiles,measurement,setting,value
"[Ca+2] [Ca^2+, calcium]",Uptake of 45Ca2+ in oocytes expressing Fpn vs control,human Fpn,neither Fpn expression nor intracellular iron injection stimulated
same,Kd,"wild type BbFpn; 20 °C, 20 mM Tris pH 8, 50 mM NaCl, 0.004% LMNG, read-out: Kd (ITC)",1.2e-05 ± 4e-07 M
same,"-TΔS, ITC",wild type BbFpn; [1],-15.3 kcal/mol
same,"N (sites), ITC",wild type BbFpn; [1],0.691 ± 8.5e-3
same,"ΔG, ITC",wild type BbFpn; [1],-6.61 kcal/mol
same,"ΔH, ITC",wild type BbFpn; [1],8.68 ± 0.155 kcal/mol
same,Kd,"wild type BbFpn; Supplementary Figs. 5 and 9, one experiment, read-out: KD (M), ITC",1.18e-05 M
same,Binding to E203A BbFpn by ITC (in words),BbFpn E203A,complete loss
same,Binding to Q84E BbFpn by ITC (in words),BbFpn Q84E,no Ca^2+ or Sr^2+ binding
